From US20060183802A1, “Compositions and methods for treating amyotrophic lateral sclerosis (ALS)” (priority 2004, published 2006)
≈ marks a conversion by molar mass, not a printed value.

Assays:
[1] = test system: SOD (wild type and A4V, G85R and G37R mutants); assay: Copper/H2O2-induced oxidative aggregation of demetallated SOD after Cys-111 modification, monitored by light scattering; type: biochemical, human
Method: Unmodified SOD aggregation. SOD aggregation of SOD with an umodified Cys-111 residue was achieved by mixing 10 μM SOD with 0.8 mM copper sulfate (CuSO4) and 10 mM hydrogen peroxide (H2O2) in 20 mM Tris at 37° C. (pH 7.4). SOD aggregation of SOD modified at the Cys-111 residue.
Modified (Blocked […] Residue) aggregation. Treatment with iodoacetate and DTNB was carried out at 0.73 mg/ml demetallated SOD, 20 mM Tris, 20 mM phosphate with 10 mM modifying reagent in each at pH 7.4 and room temperature for one hour. In the case of DTNB treatment, both protein solution and the buffer were nitrogen fused prior to the reaction. Modified SOD samples were then dialyzed against 20 mM Tris buffer at pH 7.8 in room temperature. All of the modified SOD samples were prepared fresh just before inducing oxidation with copper (0.8 mM) and hydrogen peroxide (10 mM).
Kinetic Studies of modified and unmodified SOD aggregation. To monitor the kinetics of aggregation, the SOD solution was equilibrated in a quartz cuvette at 37° C. for 5 min within the sample chamber of a Hitachi F-4500 fluorimeter, at which point a freshly made solution containing the CuSO4, H2O2, and Tris was added. Using a small stir bar, the solution was mixed for 5 s, and the light scattered at a 90° angle was immediately monitored for 1 h at an excitation and emission wavelengths of 350 with 2.5 nm slit width. […]

SOD = assay: In vitro oxidative aggregation of SOD in presence of orotate; type: biochemical, human
Text: The scope of the current study that led to the discovery of anti-aggregation effect of orotate was based the inventor's aggregation model involving the open dimers (FIG. 9) as discussed in Example 2.

[2] = according to MSDS; cited from earlier work
[3] = test system: Cu/Zn superoxide dismutase; conditions: rat liver, dietary administration; cited from earlier work
mouse models = conditions: dietary administration; cited from earlier work
cardiomyopathic hamsters = conditions: dietary administration; cited from earlier work

Structure (SMILES): O=C(O)c1cc(SSc2ccc([N+](=O)[O-])c(C(=O)O)c2)ccc1[N+](=O)[O-] [DTNB, dithionitro benzoic acid]
- aggregation of SOD after treatment with sulfhydryl blocking reagent ([1]; 10 mM modifying reagent, pH 7.4, one hour, then 0.8 mM copper, 10 mM H2O2, WT, A4V, G85R, G37R apo SOD): inhibited

Structure (SMILES): O=C(O)c1cc(=O)[nH]c(=O)[nH]1 [orotic acid]
- anti-aggregation activity across SOD variants (SOD; different variants of SOD with different extent of dimer opening): different level of anti-aggregation activity in different variants of SOD
- effect on in vitro oxidative aggregation of SOD (SOD; in vitro oxidative aggregation): inhibition of in vitro oxidative aggregation
- solubility in water [2]: 7 mM (≈ 1090 µg/mL)
- Cu/Zn superoxide dismutase mRNA level [3]: reduction
- SOD activity [3]: corresponding reduction
- memory and synaptic long-term potentiation (mouse models): improve memory and synaptic long-term potentiation
- conditions of cardiomyopathic hamsters (cardiomyopathic hamsters): improve

Structure (SMILES): O=C(O)CI [iodoacetate]
- aggregation of SOD after treatment with sulfhydryl blocking reagent ([1]; pH 7.4): inhibited
